# Laboratory results published in patent US20100292255A1, “Therapeutic Compounds and Their Use in Treating Diseases and Disorders” (Myriad Pharmaceuticals, Inc., priority 2007, published 2010).
# pIC50: −log10 of the molar value.
# System: T1, purified human Hsp90
# T1 construct: purified human Hsp90 (Stressgen, SPP-770)
# Experiment: Hsp90 binding assay: displacement of BODIPY-labeled geldanamycin measured by fluorescence polarization
# Details: 5 μM compound; BODIPY-GM 10 nM, Hsp90 30 nM, overnight at room temperature
# Method in brief: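 Purified human Hsp90 at 30 nM and 10 nM BODIPY-GM tracer were incubated overnight at room temperature with compound in 2% DMSO. The buffer was 20 mM HEPES-KOH pH 7.3, 50 mM KCl, 5 mM MgCl2, 20 mM Na2MoO4, 2 mM DTT. Background-subtracted mP values read at 485/530 nm were normalized to DMSO wells to give % inhibition.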
row,GM displacement from purified Hsp90 measured by FP Inhibition by 5 μM compd. (%),SMILES
1,53.0,"CC(C)(O)C(=O)N1CCC(CCn2cnc(N)c3nc(Sc4cc5c(cc4Br)OCCO5)nc2-3)CC1 [compound 93, l-[4-(2-{6-Amino-8-[(7-bromo-2,3-dihydro-1,4-benzodioxin-6-yl)thio]-3H-purin-3-yl}ethyl)piperidin-1-yl]-2-methyl-1-oxopropan-2-ol]"
2,10.0,"COc1ccc(Br)c(Sc2nc3c(N)ncn(CCC4CCN(C(=O)CO)CC4)c-3n2)c1 [compound 94, 2-[4-(2-{6-Amino-8-[(2-bromo-5-methoxyphenyl)thio]-3H-purin-3-yl}ethyl)piperidin-1-yl]-2-oxoethanol]"
3,13.0,"C[C@H](O)C(=O)N1CCC(CCn2cnc(N)c3nc(Sc4cc5c(cc4C#N)OCO5)nc2-3)CC1 [compound 96, 6-{[6-Amino-3-(2-{1-[(2S)-2-hydroxypropanoyl]piperidin-4-yl}ethyl)-3H-purin-8-yl]thio}-1,3-benzodioxole-5-carbonitrile]"
4,27.0,"C[C@H](O)C(=O)N1CCC(CCn2cnc(N)c3nc(Sc4cc5c(cc4C#N)OCCO5)nc2-3)CC1 [compound 100, 7-{[6-Amino-3-(2-{1-[(2S)-2-hydroxypropanoyl]piperidin-4-yl}ethyl)-3H-purin-8-yl]thio}-2,3-dihydro-1,4-benzodioxine-6-carbonitrile]"
5,18.0,"COc1ccc(OC(F)(F)F)c(Sc2nc3c(N)ncn(CCC4CCN(C(=O)CO)CC4)c-3n2)c1 [compound 103, 2-{4-[2-(6-Amino-8-{[5-methoxy-2-(trifluoromethoxy)phenyl]thio}-3H-purin-3-yl)ethyl]piperidin-1-yl}-2-oxoethanol]"
6,17.0,"COc1ccc(C#N)c(Sc2nc3c(N)ncn(CCC4CCN(C(=O)CO)CC4)c-3n2)c1 [compound 105, 2-({6-Amino-3-[2-(1-glycoloylpiperidin-4-yl)ethyl]-3H-purin-8-yl}thio)-4-methoxybenzonitrile]"
7,59.0,"CC(C)(C)[C@H](O)C(=O)N1CCC(CCn2cnc(N)c3nc(Sc4cc5c(cc4Br)OCCO5)nc2-3)CC1 [compound 107, (2S)-1-[4-(2-{6-Amino-8-[(7-bromo-2,3-dihydro-1,4-benzodioxin-6-yl)thio]-3H-purin-3-yl}ethyl)piperidin-1-yl]-3,3-dimethyl-1-oxobutan-2-ol]"
8,58.0,"C[C@H](O)C(=O)N1CCC(CCn2cnc(N)c3nc(Sc4cc5c(cc4Br)CCC5)nc2-3)CC1 [compound 109, (S)-1-(4-{2-[6-Amino-8-(6-bromo-indan-5-ylsulfanyl)-purin-3-yl]-ethyl}-piperidin-1-yl)-2-hydroxy-propan-1-one]"
9,13.0,"CCc1ccc(Br)c(Sc2nc3c(N)ncn(CCC4CCN(C(=O)[C@H](C)O)CC4)c-3n2)c1 [compound 112, (2S)-1-[4-(2-{6-Amino-8-[(2-bromo-5-ethylphenyl)thio]-3H-purin-3-yl}ethyl)piperidin-1-yl]-1-oxopropan-2-ol]"
10,15.0,"C[C@H](NC(=O)OC(C)(C)C)C(=O)N1CCCC(Cn2cnc(N)c3nc(Sc4nc5cccc(Cl)c5s4)nc2-3)C1 (stereo partly drawn) [compound 116, tert-Butyl {(1S)-2-[3-({6-amino-8-[(7-chloro-1,3-benzothiazol-2-yl)thio]-3H-purin-3-yl}methyl)piperidin-1-yl]-1-methyl-2-oxoethyl}carbamate]"
11,12.0,"COc1cc(OC)c(Cl)c(Sc2nc3c(N)ncn(CC4CCCN(C(=O)[C@H](C)NC(=O)OC(C)(C)C)C4)c-3n2)c1 (stereo partly drawn) [compound 118, tert-Butyl {(1S)-2[3-({6-amino-8-[(2-chloro-3,5-dimethoxyphenyl)thio]-3H-purin-3-yl}methyl)piperidin-1-yl]-1-methyl-2-oxoethyl}carbamate]"

# Same assay, conditions: BODIPY-GM 10 nM, Hsp90 30 nM, overnight at room temperature; read-out: GM displacement from purified Hsp90 measured by FP IC 50
row,pIC50,SMILES
1,7.05,"CC(C)(O)C(=O)N1CCC(CCn2c(Sc3cc4c(cc3Br)OCCO4)nc3c(N)ncnc32)CC1 [compound 92, 1-[4-(2-{6-Amino-8-[(7-bromo-2,3-dihydro-1,4-benzodioxin-6-yl)thio]-9H-purin-9-yl}ethyl)piperidin-1-yl]-2-methyl-1-oxopropan-2-ol]"
2,6.15,"C[C@H](O)C(=O)N1CCC(CCn2c(Sc3cc4c(cc3C#N)OCO4)nc3c(N)ncnc32)CC1 [compound 95, 6-{[6-Amino-9-(2-{1-[(2S)-2-hydroxypropanoyl]piperidin-4-yl}ethyl)-9H-purin-8-yl]thio}-l,3-benzodioxole-5-carbonitrile]"
3,6.46,"N#Cc1cc2c(cc1Sc1nc3c(N)ncnc3n1CCC1CCN(C(=O)CO)CC1)OCO2 [compound 97, 6-({6-Amino-9-[2-(1-glycoloylpiperidin-4-yl)ethyl]-9H-purin-8-yl}thio)-1,3-benzodioxole-5-carbonitrile]"
4,6.31,"C[C@H](O)C(=O)N1CCC(CCn2c(Sc3cc4c(cc3C#N)OCCO4)nc3c(N)ncnc32)CC1 [compound 99, 7-{[6-Amino-9-(2-{1-[(2S)-2-hydroxypropanoyl]piperidin-4-yl}ethyl)-9H-purin-8-yl]thio}-2,3-dihydro-1,4-benzodioxine-6-carbonitrile]"
5,6.70,"N#Cc1cc2c(cc1Sc1nc3c(N)ncnc3n1CCC1CCN(C(=O)CO)CC1)OCCO2 [compound 101, 7-({6-Amino-9-[2-(1-glycoloylpiperidin-4-yl)ethyl]-9H-purin-8-yl}thio)-2,3-dihydro-1,4-benzodioxine-6-carbonitrile]"
6,6.55,"COc1ccc(OC(F)(F)F)c(Sc2nc3c(N)ncnc3n2CCC2CCN(C(=O)CO)CC2)c1 [compound 102, 2-{4-[2-(6-Amino-8-{[5-methoxy-2-(trifluoromethoxy)phenyl]thio}-9H-purin-9-yl)ethyl]piperidin-1-yl}-2-oxoethanol]"
7,6.10,"COc1ccc(C#N)c(Sc2nc3c(N)ncnc3n2CCC2CCN(C(=O)CO)CC2)c1 [compound 104, 2-({6-Amino-9-[2-(1-glycoloylpiperidin-4-yl)ethyl]-9H-purin-8-yl}thio)-4-methoxybenzonitrile]"
8,7.15,"CC(C)(C)[C@H](O)C(=O)N1CCC(CCn2c(Sc3cc4c(cc3Br)OCCO4)nc3c(N)ncnc32)CC1 [compound 106, (2S)-1-[4-(2-{6-Amino-8-[(7-bromo-2,3-dihydro-1,4-benzodioxin-6-yl)thio]-9H-purin-9-yl}ethyl)piperidin-1-yl]-3,3-dimethyl-1-oxobutan-2-ol]"
9,6.80,"C[C@H](O)C(=O)N1CCC(CCn2c(Sc3cc4c(cc3Br)CCC4)nc3c(N)ncnc32)CC1 [compound 108, (S)-1-(4-{2-[6-Amino-8-(6-bromo-indan-5-ylsuIfanyl)-purin-9-yl]-ethyl}-piperidin-1-yl)-2-hydroxy-propan-1-one]"
10,7.14,"C[C@@H](O)C(=O)N1CCC(CCn2c(Sc3cc4c(cc3Br)OCCO4)nc3c(N)ncnc32)CC1 [compound 113, (2R)-1-[4-(2-{6-Amino-8-[(7-bromo-2,3-dihydro-1,4-benzodioxin-6-yl)thio]-9H-purin-9-yl}ethyl)piperidin-1-yl]-1-oxopropan-2-ol]"
